Experimental data reported in ChEMBL document CHEMBL1201862, “PubChem BioAssay data set” (2004).
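Values below derive from 48-hour exposures of cells grown in 96-well plates, with endpoints linearly interpolated between the two concentrations bracketing the appropriate inhibition level. GI50 marks 50% less growth.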 The source made the active and inactive calls. Cut-off read from the data, not from the text of the source: active = GI50 up to about 1.1 µM and inactive = higher. Where a SMILES comes first, the peptide text is derived from it. The star is where a group is joined. Boc = CC(C)(C)OC(=O)*

Assays:
Assay in all cases: NCI anticancer screen, dose series, 48 h
NCI-H23 = tested on: NCI-H23
786-0 = tested on: 786-0
MOLT-4 = tested on: MOLT-4
HOP-62 = tested on: HOP-62
NCI-H522 = tested on: NCI-H522
Malme-3M = tested on: Malme-3M
Hs-578T = tested on: Hs-578T
SNB-75 = tested on: SNB-75
MDA-MB-231 = tested on: MDA-MB-231
BT-549 = tested on: BT-549
U-251 = tested on: U-251
SNB-19 = tested on: SNB-19
UO-31 = tested on: UO-31
TK-10 = tested on: TK-10
HT-29 = tested on: HT-29
MCF7 = tested on: MCF7
KM12 = tested on: KM12
SK-MEL-5 = tested on: SK-MEL-5
HL-60 = tested on: HL-60
SK-OV-3 = tested on: SK-OV-3

Compound	GI50 (NCI-H23)	GI50 (786-0)	GI50 (MOLT-4)	GI50 (HOP-62)	GI50 (NCI-H522)	GI50 (Malme-3M)	GI50 (Hs-578T)	GI50 (SNB-75)	GI50 (MDA-MB-231)	GI50 (BT-549)	GI50 (U-251)	GI50 (SNB-19)	GI50 (UO-31)	GI50 (TK-10)	GI50 (HT-29)	GI50 (MCF7)	GI50 (KM12)	GI50 (SK-MEL-5)	GI50 (HL-60)	GI50 (SK-OV-3)
COC(c1ccc(C(C)(C)C)cc1)(c1ccc(C(C)(C)C)cc1)c1ccc(C(C)(C)C)cc1	> 100 µM (inactive)	> 100 µM (inactive)	> 100 µM (inactive)	> 100 µM (inactive)	> 100 µM (inactive)	> 100 µM (inactive)	> 100 µM (inactive)	> 100 µM (inactive)	> 100 µM (inactive)	> 100 µM (inactive)	> 100 µM (inactive)	> 100 µM (inactive)	> 100 µM (inactive)	> 100 µM (inactive)	> 100 µM (inactive)	> 100 µM (inactive)	> 100 µM (inactive)	> 100 µM (inactive)	> 100 µM (inactive)	
COc1ccc(/C=C2\c3cc(OC)c(OC)cc3CCN2C(=O)c2ccccc2)cc1OC	87.5 µM (inactive)	34.4 µM (inactive)	25.2 µM (inactive)	37.2 µM (inactive)	20.3 µM (inactive)	22.5 µM (inactive)	35.6 µM (inactive)	32 µM (inactive)	45.5 µM (inactive)	27.7 µM (inactive)	82.6 µM (inactive)	> 100 µM (inactive)	35.5 µM (inactive)	> 100 µM (inactive)	30.7 µM (inactive)	43.9 µM (inactive)	49.9 µM (inactive)	18.5 µM (inactive)	23.1 µM (inactive)	
CN(C)C(=S)N/N=C(\C(=N/NC(=S)N(C)C)c1ccccn1)c1ccccn1	12.3 µM (inactive)	10.4 µM (inactive)		10.9 µM (inactive)	2.65 µM (inactive)	12.9 µM (inactive)	1.01 µM (active)	12.2 µM (inactive)	14.7 µM (inactive)	14.6 µM (inactive)	3.99 µM (inactive)	12.8 µM (inactive)	6.7 µM (inactive)	8.11 µM (inactive)	3.22 µM (inactive)	1.66 µM (inactive)	4.82 µM (inactive)	9.02 µM (inactive)		14.4 µM (inactive)
CCc1n[nH]c(=O)n1N1C(=O)C2CC=CCC2C1=O (configuration not stated)	> 100 µM (inactive)	> 100 µM (inactive)	> 100 µM (inactive)	> 100 µM (inactive)	> 100 µM (inactive)	> 100 µM (inactive)	> 100 µM (inactive)	39.1 µM (inactive)	> 100 µM (inactive)	> 100 µM (inactive)	> 100 µM (inactive)	> 100 µM (inactive)	> 100 µM (inactive)	> 100 µM (inactive)	> 100 µM (inactive)	> 100 µM (inactive)	> 100 µM (inactive)	> 100 µM (inactive)		> 100 µM (inactive)
CC(C)CCCC(C)[C@H]1CC[C@H]2n3c(nc4ccccc43)CCC[C@]12C (some centres not stated)	16.9 µM (inactive)	17.5 µM (inactive)	16.1 µM (inactive)	20.7 µM (inactive)		21.9 µM (inactive)	26.9 µM (inactive)	14.6 µM (inactive)	16 µM (inactive)	19.2 µM (inactive)	19.2 µM (inactive)	19.4 µM (inactive)	14.3 µM (inactive)	17.4 µM (inactive)	8.79 µM (inactive)	14.2 µM (inactive)	19.7 µM (inactive)	16.4 µM (inactive)	13.6 µM (inactive)	17.1 µM (inactive)
CN1C(=O)c2c(c3c4ccccc4n(C4OC(CO)C(O)C(O)C4O)c3c3[nH]c4ccccc4c23)C1=O (configuration not stated)	2.59 µM (inactive)	2.67 µM (inactive)	0.624 µM (active)	2.93 µM (inactive)	0.321 µM (active)	0.194 µM (active)	4.45 µM (inactive)	3.95 µM (inactive)	1.51 µM (inactive)	4.99 µM (inactive)	0.681 µM (active)	0.849 µM (active)	2.57 µM (inactive)	3.12 µM (inactive)	3.13 µM (inactive)	5.51 µM (inactive)	3.85 µM (inactive)	1.36 µM (inactive)		2.92 µM (inactive)
CC(C)(C)OC(=O)NCC(=O)NCC(=O)NCC(=O)NCC(=O)O (Boc-GGGG-OH)	> 100 µM (inactive)	> 100 µM (inactive)	> 100 µM (inactive)	> 100 µM (inactive)	> 100 µM (inactive)	> 100 µM (inactive)	66.1 µM (inactive)		> 100 µM (inactive)	> 100 µM (inactive)	> 100 µM (inactive)	> 100 µM (inactive)	> 100 µM (inactive)	> 100 µM (inactive)	> 100 µM (inactive)	> 100 µM (inactive)	> 100 µM (inactive)	> 100 µM (inactive)	> 100 µM (inactive)	> 100 µM (inactive)
